Experiment [1] has as its target T1, APJ (Homo sapiens, UniProt P35414).
T1 construct: expressed in transfected cells; host or cells: CHO (CHO-A10; clone 6 for the cAMP assay)
T1 sequence (P35414 1-380): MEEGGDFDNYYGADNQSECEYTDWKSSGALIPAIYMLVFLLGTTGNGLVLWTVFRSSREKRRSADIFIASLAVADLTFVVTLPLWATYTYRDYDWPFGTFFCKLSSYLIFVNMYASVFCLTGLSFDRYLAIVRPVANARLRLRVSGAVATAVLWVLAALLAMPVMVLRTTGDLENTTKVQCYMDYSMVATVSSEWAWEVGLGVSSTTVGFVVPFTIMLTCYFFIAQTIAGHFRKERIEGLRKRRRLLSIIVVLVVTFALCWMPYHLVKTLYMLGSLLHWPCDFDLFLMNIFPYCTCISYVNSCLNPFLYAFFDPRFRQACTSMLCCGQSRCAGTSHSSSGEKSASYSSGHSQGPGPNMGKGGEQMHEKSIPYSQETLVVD
Briefly: Receptor binding assay-2 (compound in Reference Example 2 used). The note with it: compound in Reference Example 2 used as ligand; read-out: IC50.

Experiment [2] addresses T1, APJ. Briefly: Receptor binding assay-1 (125I-labeled compound in Reference Example 1, CHO-A10 membrane fraction). The note with it: 125I-labeled compound in Reference Example 1 at 100 pM. On the procedure: This product was mixed with an equal volume of an assay buffer (50 mM Tris-HCl/pH 7.5, 5 mM EDTA, 0.5 mM PMSF, 20 μg/ml leupeptin, 0.1 μg/ml pepstatin A, 4 μg/ml E-64 (Peptide Research Laboratory, Co.), 0.1% bovine serum albumin) and stored at −30° C. before use.
CHO-A10 cells were cultured, recovered with PBS containing 5 mM EDTA from a culture vessel, and suspended in the above-mentioned assay buffer not containing bovine serum albumin. The cells were homogenized 3 times at 12,000 rpm for 15 seconds by a Polytron homogenizer (manufactured by Kinematica Inc.) and then centrifuged (1000×g, 4° C., 10 minutes), and the supernatant was recovered. The precipitates were subjected again to the same procedure as above, and the respective supernatants were combined and centrifuged at 100,000×g, 4° C. for 1 hour, to recover precipitates (membrane fraction). The membrane fraction was suspended again in a small amount of the buffer, homogenized with a Teflon homogenizer and stored at −80° C. before use.
Binding assay was carried out under the following conditions. […] Measurement of non-specific binding was carried out using a well containing 1 μM unlabeled compound in place of the test sample. After the incubation was finished, a cell harvester (Packard) adapted to 96 wells and a filter unit (GF/C, Packard) were used for separation thereby capturing the membrane fraction on the filter. After the filter was sufficiently dried, Microcinti 0 (Packard) was added thereto, and using Top Count (Packard), the amount of the labeled material captured together with the membrane fraction on the filter was measured.

The target of experiment [3] is T1, APJ. Nature of the experiment: Inhibitory activity on forskolin-stimulated cAMP production in CHO-A10 clone 6 cells. In kind it is cell-based. The conditions noted are these: read-out: EC50.

pEC50, pIC50: −log10 of the molar value. Non-standard residues stand in square brackets, D forms with d. Residues, ends and D or L forms follow the SMILES beside them. Phe(4-Cl) = N[C@@H](Cc1ccc(Cl)cc1)C(=O)O; Cha = N[C@@H](CC1CCCCC1)C(=O)O

The values that follow come from US20040116336A1, “Peptide derivatives” (priority 2002, published 2004).

A word on the pIC50: it is −log10 of the IC50, conventionally taken in molar units. One may read the pEC50 as the negative decadic logarithm of the EC50, by convention in mol/L.

`CC(C)C[C@H](NC(=O)[C@H](CCCNC(=N)N)NC(=O)[C@@H]1CCCN1C(=O)[C@@H](N)CCCNC(=N)N)C(=O)N[C@@H](CO)C(=O)N[C@@H](C)C(=O)N[C@@H](CCCNC(=N)N)C(=O)NCC(=O)N1CCC[C@H]1C(=O)N[C@@H](CC1CCCCC1)C(=O)N[C@@H](Cc1ccc(Cl)cc1)C(=O)O` [Compound in Ex. 4] (H-RPRLSARGP[Cha][Phe(4-Cl)]-OH; N-terminus and C-terminus assumed): the pIC50 in experiment [1] is 10.00; in experiment [2] (room temperature […]) it was 9.00. The pEC50 in experiment [3] is 9.19.

As to `CC(C)C[C@H](NC(=O)[C@H](CCCNC(=N)N)NC(=O)[C@@H]1CCCN1C(=O)[C@@H](N)CCCNC(=N)N)C(=O)N[C@@H](CO)C(=O)N[C@@H](C)C(=O)N[C@@H](CCCNC(=N)N)C(=O)NCC(=O)N1CCC[C@H]1C(=O)N[C@@H](CC1CCCCC1)C(=O)N1CCC[C@H]1C(=O)N[C@@H](Cc1ccc(Cl)cc1)C(=O)O` [Compound in Ex. 5] (H-RPRLSARGP[Cha]P[Phe(4-Cl)]-OH), the pIC50 in experiment [1] is 9.89; in experiment [2] (room temperature […]) it was 8.92. The negative logarithm of the EC50 (pEC50) in experiment [3] was 9.29.

With `CC(C)C[C@H](NC(=O)[C@H](CCCNC(=N)N)NC(=O)[C@@H]1CCCN1C(=O)[C@H](CCCNC(=N)N)NC(=O)[C@H](CCC(N)=O)NC(=O)[C@H](CCCNC(=N)N)NC(=O)[C@@H](N)CCCNC(=N)N)C(=O)N[C@@H](CO)C(=O)N[C@@H](C)C(=O)N[C@@H](CCCNC(=N)N)C(=O)NCC(=O)N1CCC[C@H]1C(=O)N[C@@H](CC1CCCCC1)C(=O)O` [Compound in Ex. 6], the figures for the pIC50 in experiment [1] and in experiment [2] (room temperature […]) were 10.34 and 8.85, respectively. In addition, the pEC50 in experiment [3] was 9.26.

On to `CC(C)C[C@H](NC(=O)[C@H](CCCNC(=N)N)NC(=O)[C@@H]1CCCN1C(=O)[C@@H](N)CCCNC(=N)N)C(=O)N[C@@H](CO)C(=O)N[C@@H](Cc1c[nH]cn1)C(=O)N[C@@H](CCCCN)C(=O)NCC(=O)N1CCC[C@H]1C(=O)N[C@@H](CC1CCCCC1)C(=O)N1CCC[C@H]1C(=O)N[C@@H](Cc1ccc(Cl)cc1)C(=O)O` [Compound in Ex. 7], for which the pIC50 is 9.92 in experiment [1] and 8.85 in experiment [2] (room temperature […]). In experiment [3], the pEC50 is 9.39.

In the case of `CSCC[C@H](NC(=O)[C@@H]1CCCN1C(=O)CNC(=O)[C@H](CCCCN)NC(=O)[C@H](Cc1c[nH]cn1)NC(=O)[C@H](CO)NC(=O)[C@H](CC(C)C)NC(=O)[C@H](CCCNC(=N)N)NC(=O)[C@@H]1CCCN1C(=O)[C@@H](N)CCCNC(=N)N)C(=O)N1CCC[C@H]1C(=O)N[C@@H](Cc1ccc(Cl)cc1)C(=O)O` [Compound in Ex. 8], the pIC50 was 10.41 in experiment [1] and 7.89 in experiment [2] (room temperature 1.5 hours). Also, the negative logarithm of the EC50 (pEC50) in experiment [3] was 9.47.

In the case of `CC(C)C[C@H](NC(=O)[C@H](CCCNC(=N)N)NC(=O)[C@@H]1CCCN1C(=O)[C@@H](N)CCCNC(=N)N)C(=O)N[C@@H](CO)C(=O)N[C@@H](C)C(=O)N[C@@H](CCCNC(=N)N)C(=O)NCC(=O)N1CCC[C@H]1C(=O)N[C@@H](CC1CCCCC1)C(=O)N1CCC[C@H]1C(=O)N[C@@H](Cc1ccccc1)C(=O)O` [Compound in Ex. 11] (H-RPRLSARGP[Cha]PF-OH; N-terminus and C-terminus assumed), the figures for the pIC50 in experiment [1] and in experiment [2] (room temperature […]) were 10.08 and 8.66, respectively. Further, in experiment [3], the pEC50 was 9.23.

Regarding `CC(C)C[C@H](NC(=O)[C@H](CCCNC(=N)N)NC(=O)[C@@H]1CCCN1C(=O)[C@@H](N)CCCNC(=N)N)C(=O)N[C@@H](Cc1ccccc1)C(=O)N[C@@H](C)C(=O)N[C@@H](CCCNC(=N)N)C(=O)NCC(=O)N1CCC[C@H]1C(=O)N[C@@H](CC1CCCCC1)C(=O)N1CCC[C@H]1C(=O)N[C@@H](Cc1ccc(Cl)cc1)C(=O)O` [Compound in Ex. 12] (H-RPRLFARGP[Cha]P[Phe(4-Cl)]-OH), the pIC50 was 9.42 in experiment [1] and 8.64 in experiment [2] (room temperature […]). Besides, the pEC50 in experiment [3] is 8.92.

As to `CC(C)C[C@H](NC(=O)[C@H](CCCNC(=N)N)NC(=O)[C@@H]1CCCN1C(=O)[C@@H](N)CCCNC(=N)N)C(=O)N[C@@H](Cc1ccccc1)C(=O)N[C@@H](Cc1c[nH]cn1)C(=O)N[C@@H](CCCCN)C(=O)NCC(=O)N1CCC[C@H]1C(=O)N[C@@H](CC1CCCCC1)C(=O)N1CCC[C@H]1C(=O)N[C@@H](Cc1ccc(Cl)cc1)C(=O)O` [Compound in Ex. 13] (H-RPRLFHKGP[Cha]P[Phe(4-Cl)]-OH; N-terminus and C-terminus assumed), the pIC50 in experiment [1] is 9.54; in experiment [2] (room temperature […]), 8.57. Further, the pEC50 in experiment [3] was 9.00.

For `CCCC[C@H](NC(=O)[C@@H]1CCCN1C(=O)CNC(=O)[C@H](CCCCN)NC(=O)[C@H](Cc1c[nH]cn1)NC(=O)[C@H](CO)NC(=O)[C@H](CC(C)C)NC(=O)[C@H](CCCNC(=N)N)NC(=O)[C@@H]1CCCN1C(=O)[C@H](CCCNC(=N)N)NC(=O)[C@H](CCC(N)=O)NC(=O)[C@H](CCCNC(=N)N)NC(=O)[C@@H](N)CCCNC(=N)N)C(=O)N1CCC[C@H]1C(=O)N[C@@H](Cc1ccc(O)cc1)C(=O)O` [Compound in Ex. 14], the pIC50 was 10.57 in experiment [1] and 8.57 in experiment [2] (room temperature […]). Further, the pEC50 in experiment [3] was 9.55.

For the compound `CC(C)C[C@H](NC(=O)[C@H](CCCNC(=N)N)NC(=O)[C@@H]1CCCN1C(=O)[C@@H](N)CCCNC(=N)N)C(=O)N[C@@H](Cc1ccccc1)C(=O)N[C@@H](Cc1c[nH]cn1)C(=O)N[C@@H](CCCCN)C(=O)NCC(=O)N1CCC[C@H]1C(=O)N[C@@H](CC1CCCCC1)C(=O)N1CCC[C@H]1C(=O)N[C@@H](Cc1ccccc1)C(=O)O` [Compound in Ex. 15] (H-RPRLFHKGP[Cha]PF-OH; N-terminus and C-terminus assumed), the pIC50 is 9.89 in experiment [1] and 8.10 in experiment [2] (room temperature […]). Also, the pEC50 in experiment [3] was 9.34.

In the case of `CSCC[C@H](NC(=O)[C@@H]1CCCN1C(=O)CNC(=O)[C@H](CCCCN)NC(=O)[C@H](Cc1c[nH]cn1)NC(=O)[C@H](Cc1ccccc1)NC(=O)[C@H](CC(C)C)NC(=O)[C@H](CCCNC(=N)N)NC(=O)[C@@H]1CCCN1C(=O)[C@@H](N)CCCNC(=N)N)C(=O)N1CCC[C@H]1C(=O)N[C@@H](Cc1ccc(Cl)cc1)C(=O)O` [Compound in Ex. 16] (H-RPRLFHKGPMP[Phe(4-Cl)]-OH; N-terminus and C-terminus assumed), the pIC50 in experiment [1] was 10.18; in experiment [2] (room temperature […]), 8.10. The pEC50 in experiment [3] is 9.42.

Consider `CSCC[C@H](NC(=O)[C@@H]1CCCN1C(=O)CNC(=O)[C@H](CCCNC(=N)N)NC(=O)[C@H](C)NC(=O)[C@H](CO)NC(=O)[C@H](CC(C)C)NC(=O)[C@H](CCCNC(=N)N)NC(=O)[C@@H]1CCCN1C(=O)[C@H](CCCNC(=N)N)NC(=O)[C@H](CCC(N)=O)NC(=O)[C@H](CCCNC(=N)N)NC(=O)[C@@H](N)CCCNC(=N)N)C(=O)O` [Compound in Ex. 18], for which the pIC50 in experiment [1] is 10.64; in experiment [2] (room temperature […]) it was 8.60. Further, the pEC50 in experiment [3] is 9.74.

As for `CSCC[C@H](NC(=O)[C@@H]1CCCN1C(=O)CNC(=O)[C@H](CCCCN)NC(=O)[C@H](Cc1c[nH]cn1)NC(=O)[C@H](CO)NC(=O)[C@H](CC(C)C)NC(=O)[C@H](CCCNC(=N)N)NC(=O)[C@@H]1CCCN1C(=O)[C@H](CCCNC(=N)N)NC(=O)[C@H](CCCCNC(=O)[C@H](CCCNC(=N)N)NC(=O)[C@@H](N)CCCNC(=N)N)NC(=O)[C@H](CCCNC(=N)N)NC(=O)[C@@H](N)CCCNC(=N)N)C(=O)N1CCC[C@H]1C(=O)N[C@@H](Cc1ccccc1)C(=O)O` [Compound in Ex. 21], the negative logarithm of the IC50 (pIC50) is 9.08 in experiment [1] and 8.54 in experiment [2] (room temperature […]). Further, in experiment [3], the pEC50 was 9.24.

`CSCC[C@H](NC(=O)[C@@H]1CCCN1C(=O)CNC(=O)[C@H](CCCCN)NC(=O)[C@H](Cc1c[nH]cn1)NC(=O)[C@H](CO)NC(=O)[C@H](CC(C)C)NC(=O)[C@H](CCCNC(=N)N)NC(=O)[C@@H]1CCCN1C(=O)[C@H](CCCNC(=N)N)NC(=O)[C@H](CCCCN)NC(=O)[C@H](CCCNC(=N)N)NC(=O)[C@@H](N)CCCNC(=N)N)C(=O)N1CCC[C@H]1C(=O)N[C@@H](Cc1ccccc1)C(=O)O` [Compound in Ex. 23]: the pIC50 was 10.05 in experiment [1] and 8.04 in experiment [2] (room temperature […]). Also, the pEC50 in experiment [3] was 9.51.
